Assay results from patent publication US20070292876A1, “METHODS FOR IDENTIFICATION OF COMPOUNDS THAT MIMIC THE SENESCENCE-INDUCING ACTIVITY OF RETINOIC ACID RECEPTOR LIGANDS” (Ordway Research Institute, Inc., priority 2006, published 2007).

Columns and labels:
Type in all cases: cell-based, human
[1] = system: MCF-7 cells; assay: Affymetrix U133 Plus 2.0 microarray gene expression profiling: tumor suppressors induced by RAR ligands; details: 24, 48 or 72 hr treatment
Description: (§1) FIG. 3 depicts microarray analysis of changes in gene expression in MCF-7 cells treated with RAR ligands LGD1550 or LG100815, plotted using GeneSpring software. The X axis represents different time points of treatment with RAR ligands (0 point correspond to cells cultured for 3 days with DMSO carrier). […] The groups of genes shown in panels (a) and (b) represent gene ontology (GO) categories, with the exclusion of genes showing raw signal intensity <10 in MCF-7 cells. The groups of genes shown in panels (c) and (d) represent the oncogenes and tumor suppressors listed in Table 1 and Table 2, respectively.
(§2) For the analysis of gene expression, cells treated with the carrier or with RAR ligands LGD1550 or LG100815 were collected after 24, 48 or 72 hr treatment. Total cellular RNA was isolated using Qiagen's RNeasy kit. For gene expression profiling, RNA samples were provided to the Microarray Core Facility at the Genomics Institute of the NYSDOH Wadsworth Center, which carried out biotinylated target preparation (using 2 μg RNA per assay) and hybridization with Affymetrix U133 Plus 2.0 microarrays. Data analysis was carried out using GeneSpring software (Agilent). Gene function analysis was carried out using Pathway Assist (Ariadne Genomics) and PubMed.
As previously described (Dokmanovic et al., 2002), retinoid treatment of MCF-7 cells induces genes that encode growth-inhibitory proteins, both intracellular (EPLIN and UBD) and secreted (IGFBP3 and TGFBI). Through the survey of the present microarray data, additional retinoid-inducible growth-inhibitory genes, induced both by LGD1550 and LG100815, have been identified. These genes, listed in Table 2, provide advantageous reporters for identifying compounds that mimic the senescence-inducing effects of retinoids. The products of these genes include both secreted factors and cell-associated proteins.

[2] = system: MCF-7 cells; assay: Effect on MCF-7 cell growth (cell number after 7 days exposure); details: LGD1550 100 nM, LG100815 10 μM, LGD1268 100 nM, LG101208 10 μM
Description: The bars represent cell number after 7 days of culture with the addition of DMSO (control), 100 nM RA, 100 nM RAR agonist LGD1550, 100 nM RXR agonist LGD1268, 10 μM RAR antagonist LG100815, and 10 μM RXR antagonist LG101208. Experiments were done in triplicate, and the results are expressed relative to the average of the control.
(§3) MCF-7 cells were plated at 5×10^5 per P100, and exposed on the next day to DMSO carrier, RA (100 nM), pan-RAR-specific ligands, LGD1550 (100 nM) and LG100815 (10 μM), pan-RXR specific agonist LGD1268, pan-RXR-specific antagonist LG101208, or drug-free DMSO carrier (control). The latter four compounds were provided by Ligand Pharmaceuticals, Inc. The effects of RAR ligands on the growth of MCF-7 cells were determined, as measured by the cell number after 7 days exposure to the compounds (FIG. 1) and on the fraction of cells expressing the senescence-associated β-galactosidase activity (SA-β-gal), a marker of senescence, after 7-day treatment with the compounds (FIG. 2).

[3] = system: MCF-7 cells; assay: Affymetrix U133 Plus 2.0 microarray gene expression profiling: genes (oncogenes) inhibited by RAR ligands; details: 24, 48 or 72 hr treatment
Description: as §1, §2
Gene Ontology groupings of genes with related biological functions (as provided in the GeneSpring software package) were surveyed for concerted response to RAR ligands. […] Strong downregulation of such genes has been associated with cell cycle arrest induced by chemotherapeutic drugs (Chang et al., 2002). In contrast, inhibition of these genes by RAR ligands was moderate (on average about 2-fold), with almost no genes showing 5-fold or stronger inhibition. On the other hand, we noticed that many of the genes that show the greatest fold inhibition by RAR ligands are known or putative oncogenes. Genes are defined herein as putative oncogenes or tumor suppressors if such genes have been reported in the literature to play a functional role in tumor cell growth, survival, tumorigenesis or metastasis, as determined by targeted inhibition, gene overexpression or protein addition studies.

[4] = system: MCF-7 cells; assay: Senescence-associated β-galactosidase (SA-β-gal) positive fraction of MCF-7 cells; details: 7-day treatment; same concentrations as for cell growth
Description: The bars represent percentages of SA-P-gal+cells after 8 days of treatment with the indicated compounds (in triplicate). The compounds were used at the same concentrations as in FIG. 1.
as §3

SMILES: CC(/C=C/C=C(\C)c1cc(C(C)(C)C)cc(C(C)(C)C)c1)=C\C(=O)O [LGD1550]
- Max fold induction of NBL1 ([1]; probe 37005_at): 4.0 fold
- Max fold induction of GSN ([1]; probe 200696_s_at): 1.7 fold
- Max fold induction of BTG1 ([1]; probe 200921_s_at): 2.5 fold
- Max fold induction of PRSS11 ([1]; probe 201185_at, secreted): 1.9 fold
- Max fold induction of BTG2 ([1]; probe 201236_s_at): 8.3 fold
- Max fold induction of TGFBI ([1]; probe 201506_at, secreted): 53.0 fold
- Max fold induction of MARCKS ([1]; probe 201669_s_at): 9.3 fold
- Max fold induction of PRSS8 ([1]; probe 202525_at, secreted): 2.4 fold
- Max fold induction of IRF1 ([1]; probe 202531_at): 5.3 fold
- Max fold induction of FBLN5 ([1]; probe 203088_at, secreted): 10.1 fold
- Max fold induction of IGFBP6 ([1]; probe 203851_at, secreted): 2.6 fold
- Max fold induction of GADD45G ([1]; probe 204121_at): 3.8 fold
- Max fold induction of UBD ([1]; probe 205890_s_at): 35.9 fold
- Max fold induction of BATF ([1]; probe 205965_at): 2.7 fold
- Max fold induction of CEACAM1 ([1]; probe 206576_s_at): 16.2 fold
- Max fold induction of PPARG ([1]; probe 208510_s_at): 15.9 fold
- Max fold induction of KLF6 ([1]; probe 208961_s_at): 2.2 fold
- Max fold induction of DDIT3 ([1]; probe 209383_at): 2.5 fold
- Max fold induction of NKX3-1 ([1]; probe 209706_at): 7.5 fold
- Max fold induction of IGFBP3 ([1]; probe 210095_s_at, secreted): 32.2 fold
- Max fold induction of SULF1 ([1]; probe 212354_at, secreted): 2.9 fold
- Max fold induction of PDCD4 ([1]; probe 212593_s_at): 1.7 fold
- Max fold induction of EI24 ([1]; probe 216396_s_at): 2.2 fold
- Max fold induction of EPLIN ([1]; probe 217892_s_at): 18.8 fold
- Max fold induction of PHLDA1 ([1]; probe 217996_at): 3.7 fold
- Max fold induction of GDF15 ([1]; probe 221577_x_at, secreted): 7.2 fold
- Max fold induction of FOXO3A ([1]; probe 224891_at): 2.3 fold
- Max fold induction of HIPK2 ([1]; probe 225368_at): 3.7 fold
- Max fold induction of TGFB2 ([1]; probe 228121_at, secreted): 2.0 fold
- Max fold induction of CDKN2B ([1]; probe 236313_at): 3.2 fold
- Max fold induction of VHL ([1]; probe 1559227_s_at): 2.0 fold
- MCF-7 cell growth (cell number) [2]: inhibited the cell growth
- Max fold inhibition of G6PD ([3]; probe 202275_at): 2.2 fold
- Max fold inhibition of CCNA2 ([3]; probe 203418_at): 3.3 fold
- Max fold inhibition of PTTG1 ([3]; probe 203554_x_at): 2.7 fold
- Max fold inhibition of PBX3 ([3]; probe 204082_at): 3.4 fold
- Max fold inhibition of FGFR3 ([3]; probe 204379_s_at): 5.0 fold
- Max fold inhibition of TFF3 ([3]; probe 204623_at, secreted): 4.0 fold
- Max fold inhibition of IRS1 ([3]; probe 204686_at): 2.6 fold
- Max fold inhibition of MYB ([3]; probe 204798_at): 9.9 fold
- Max fold inhibition of C4.4A ([3]; probe 204952_at): 8.1 fold
- Max fold inhibition of ENTPD5 ([3]; probe 205757_at): 3.4 fold
- Max fold inhibition of GREB1 ([3]; probe 205862_at): 4.8 fold
- Max fold inhibition of HMMR ([3]; probe 207165_at): 2.9 fold
- Max fold inhibition of CCND1 ([3]; probe 208711_s_at): 2.1 fold
- Max fold inhibition of BMP7 ([3]; probe 209591_s_at, secreted): 1.8 fold
- Max fold inhibition of CXCL12 ([3]; probe 209687_at, secreted): 5.7 fold
- Max fold inhibition of MSX2 ([3]; probe 210319_x_at): 4.0 fold
- Max fold inhibition of RET ([3]; probe 211421_s_at): 8.5 fold
- Max fold inhibition of PIK3R1 ([3]; probe 212240_s_at): 2.0 fold
- Max fold inhibition of MYBL1 ([3]; probe 213906_at): 2.6 fold
- Max fold inhibition of MAFB ([3]; probe 218559_s_at): 7.5 fold
- Max fold inhibition of VAV3 ([3]; probe 218807_at): 14.5 fold
- Max fold inhibition of PDLIM2 ([3]; probe 219165_at): 4.0 fold
- Max fold inhibition of ECT2 ([3]; probe 219787_s_at): 2.8 fold
- Max fold inhibition of SPDEF ([3]; probe 220192_x_at): 14.2 fold
- Max fold inhibition of AMIGO2 ([3]; probe 222108_at): 11.7 fold
- Max fold inhibition of MALAT1 ([3]; probe 224559_at): 2.5 fold
- fraction of cells expressing SA-β-gal (senescent phenotype) [4]: induced SA-β-gal to an extent similar to that of RA
